This assay deals with Cladosporium cucumerinum. The assay can be described thus: Mycelial growth test. The format is cell-based. As to conditions: CC; for Percent Fungus Growth Inhibition: 72 hours; for inhibition at 5 ppm / inhibition at 10 ppm / inhibition at 40 ppm / inhibition at 20 ppm: Cladosporium cucumerinum, read-out: Percent Fungus Growth Inhibition; for inhibition at 5 ppm / inhibition at 10 ppm / inhibition at 40 ppm: 72 h; for inhibition at 20 ppm: CC20, 72 h. The source says:
|CC = Cladosporium cucumerinum

Where a name gives a salt, the structure may show the parent alone.

Consider “3-chloro-5-(bromophenoxy)-4H-1,2,6-thiadiazin-4-one [Compound 33]”, for which the “Percent Fungus Growth Inhibition” value is, setting by setting: (5 ppm) 11%; (10 ppm) 28%; (20 ppm) 61%; (40 ppm) 83%.
For the compound “3-chloro-5-[methylaminocarbonyloxy)phenoxyl]-4H-1,2,6-thiadiazin-4-one [Compound 36]”, the “Percent Fungus Growth Inhibition” value by setting is: (5 ppm) 0%; (10 ppm) 8%; (20 ppm) 38%; (40 ppm) 62%.
Usually inhibition stands for the share of the control response that was lost under treatment. On to `O=c1c(Cl)nsnc1Oc1ccccc1` [Compound 2, 3-chloro-5-phenoxy-4H--1,2,6-thiadiazin-4-one], for which the inhibition at 5 ppm (5 ppm) was 46%. Besides, under “10 ppm”, the inhibition at 10 ppm amounted to 58%. Under “40 ppm”, the inhibition at 40 ppm is 100%. The inhibition at 20 ppm (20 ppm) was 100%.
With `Cc1ccc(Oc2nsnc(Cl)c2=O)cc1` [Compound 3, 3-chloro-5-(4-methylphenoxy)-4H--1,2,6-thiadiazin-4-one], the inhibition at 5 ppm (5 ppm) amounted to 58%. The inhibition at 10 ppm (10 ppm) stood at 67%. The inhibition at 40 ppm (40 ppm) worked out at 100%. Besides, for the setting “20 ppm”, the inhibition at 20 ppm came out at 100%.
In the case of `CC(C)(C)c1ccc(Oc2nsnc(Cl)c2=O)cc1` [Compound 4, 3-chloro-5-(4-tert-butylphnoxy)-4H--1,2,6-thiadiazin-4-one], for the setting “5 ppm”, the inhibition at 5 ppm was 0%. The inhibition at 10 ppm (10 ppm) amounted to 9%. For the same compound, the inhibition at 40 ppm (40 ppm) was determined as 45%. Further, where the note is “20 ppm”, the inhibition at 20 ppm was 27%.
With `COc1ccc(Oc2nsnc(Cl)c2=O)cc1` [Compound 5, 3-chloro-5-(4-methoxyphenoxy)4H--1,2,6-thiadiazin-4-one], the inhibition at 5 ppm (5 ppm) stood at 50%. In addition, the inhibition at 10 ppm (10 ppm) was 75%. For the setting “40 ppm”, the inhibition at 40 ppm came to 100%. Further, the inhibition at 20 ppm (20 ppm) came to 100%.
For the compound `CCCCOc1ccc(Oc2nsnc(Cl)c2=O)cc1` [Compound 6, 3-chloro-5-(4-n-butoxyphenoxy)-4H--1,2,6-thiadiazin-4-one], the inhibition at 5 ppm (5 ppm) was 0%. Also, the inhibition at 10 ppm (10 ppm) was 0%. The inhibition at 40 ppm (40 ppm) came out at 45%. The inhibition at 20 ppm (20 ppm) came out at 0%.
Regarding `CCOC(=O)c1ccc(Oc2nsnc(Cl)c2=O)cc1` [Compound 7, 3-chloro-5-(4-ethoxycarbonylphenoxy)-4H--1,2,6-thiadiazin-4-one], under “5 ppm”, the inhibition at 5 ppm was found to be 9%. Moreover, the inhibition at 10 ppm (10 ppm) is 36%. The inhibition at 40 ppm (40 ppm) turned out to be 100%. Also, the inhibition at 20 ppm (20 ppm) is 100%.
`CC(=O)Nc1ccc(Oc2nsnc(Cl)c2=O)cc1` [Compound 8, 5-(4-acetylaminophenoxy)-3-chloro-4H--1,2,6-thiadiazin-4-one]: for the setting “5 ppm”, the inhibition at 5 ppm was 50%. The inhibition at 10 ppm (10 ppm) was 58%. In addition, the inhibition at 40 ppm (40 ppm) came out at 100%. For the same compound, the inhibition at 20 ppm (20 ppm) was 67%.
Regarding `O=c1c(Cl)nsnc1Oc1ccc([N+](=O)[O-])cc1` [Compound 9, 3-chloro-5-(4-nitrophenoxy)-4H--1,2,6-thiadiazin-4-one], under “5 ppm”, the inhibition at 5 ppm came to 54%. Moreover, the inhibition at 10 ppm (10 ppm) came to 75%. Further, where the note is “40 ppm”, the inhibition at 40 ppm worked out at 100%. For the same compound, for the setting “20 ppm”, the inhibition at 20 ppm is 92%.
With `N#Cc1ccc(Oc2nsnc(Cl)c2=O)cc1` [Compound 10, 3-chloro-5-(4-cyanophenoxy)-4H--1,2,6-thiadiazin-4-one], the inhibition at 5 ppm (5 ppm) came out at 9%. The inhibition at 10 ppm (10 ppm) worked out at 45%. In addition, the inhibition at 40 ppm (40 ppm) came to 100%. Further, where the note is “20 ppm”, the inhibition at 20 ppm was 100%.
With `O=c1c(Cl)nsnc1Oc1ccc(F)cc1` [Compound 11, 3-chloro-5-(4-fluorophenoxy)-4H--1,2,6-thiadiazin-4-one], the inhibition at 5 ppm (5 ppm) worked out at 27%. Moreover, for the setting “10 ppm”, the inhibition at 10 ppm was 64%. The inhibition at 40 ppm (40 ppm) was 100%. In addition, under “20 ppm”, the inhibition at 20 ppm is 100%.
As for `O=c1c(Cl)nsnc1Oc1ccc(Cl)cc1` [Compound 12, 3-chloro-5-(4-chlorophenoxy)-4H--1,2,6-thiadiazin-4-one], where the note is “5 ppm”, the inhibition at 5 ppm was determined as 63%. Further, the inhibition at 10 ppm (10 ppm) was determined as 58%. The inhibition at 40 ppm (40 ppm) stood at 100%. Also, where the note is “20 ppm”, the inhibition at 20 ppm was found to be 71%.
For the compound `O=c1c(Cl)nsnc1Oc1cccc(Cl)c1` [Compound 13, 3-chloro-5-(3-chlorophenoxy)-4H--1,2,6-thiadiazin-4-one], the inhibition at 5 ppm (5 ppm) turned out to be 58%. The inhibition at 10 ppm (10 ppm) was 67%. Also, where the note is “40 ppm”, the inhibition at 40 ppm was determined as 100%. The inhibition at 20 ppm (20 ppm) worked out at 100%.
For `O=c1c(Cl)nsnc1Oc1ccccc1Cl` [Compound 14, 3-chloro-5-(2-chlorophenoxy)-4H--1,2,6-thiadiazin-4-one], under “5 ppm”, the inhibition at 5 ppm turned out to be 67%. For the same compound, for the setting “10 ppm”, the inhibition at 10 ppm was found to be 50%. Further, the inhibition at 40 ppm (40 ppm) was determined as 100%. The inhibition at 20 ppm (20 ppm) was 100%.
With `O=c1c(Cl)nsnc1Oc1ccc(Br)cc1` [Compound 15, 3-chloro-5-(4-bromophenoxy)-4H--1,2,6-thiadiazin-4-one], the inhibition at 5 ppm (5 ppm) came out at 9%. The inhibition at 10 ppm (10 ppm) is 55%. The inhibition at 40 ppm (40 ppm) was 100%. Also, the inhibition at 20 ppm (20 ppm) was 82%.
Turning to `O=c1c(Cl)nsnc1Oc1ccc(Cl)c(Cl)c1` [Compound 16, 3-chloro-5-(3,4-dichlorophenoxy)-4H--1,2,6-thiadiazin-4-one], the inhibition at 5 ppm (5 ppm) was found to be 58%. Moreover, the inhibition at 10 ppm (10 ppm) amounted to 54%. Where the note is “40 ppm”, the inhibition at 40 ppm worked out at 75%. The inhibition at 20 ppm (20 ppm) came to 67%.
On the same counts, the results for `O=c1c(Cl)nsnc1Oc1ccc(Cl)cc1Cl` [Compound 17, 3-chloro-5-(2,4-dichlorophenoxy)-4H--1,2,6-thiadiazin-4-one] are 100%, 100%, 100% and 100%.
Consider `O=c1c(Cl)nsnc1Oc1c(Cl)cccc1Cl` [Compound 18, 3-chloro-5-(2,6-dichlorophenoxy)-4H--1,2,6-thiadiazin-4-one], for which the inhibition at 5 ppm (5 ppm) was determined as 83%. The inhibition at 10 ppm (10 ppm) is 100%. Further, the inhibition at 40 ppm (40 ppm) was 100%. The inhibition at 20 ppm (20 ppm) is 100%.
Regarding `O=c1c(Cl)nsnc1Oc1cccc(Cl)c1Cl` [Compound 19, 3-chloro-5-(2,3-dichlorophenoxy)-4H--1,2,6-thiadiazin-4-one], the inhibition at 5 ppm (5 ppm) was found to be 100%. The inhibition at 10 ppm (10 ppm) worked out at 100%. In addition, the inhibition at 40 ppm (40 ppm) is 100%. Moreover, the inhibition at 20 ppm (20 ppm) stood at 100%.
Take `O=c1c(Cl)nsnc1Oc1cc(Cl)cc(Cl)c1` [Compound 20, 3-chloro-5-(3,5-dichlorophenoxy)-4H--1,2,6-thiadiazin-4-one]: the inhibition at 5 ppm (5 ppm) was 100%. In addition, the inhibition at 10 ppm (10 ppm) was 100%. Also, the inhibition at 40 ppm (40 ppm) was determined as 100%. For the same compound, the inhibition at 20 ppm (20 ppm) worked out at 100%.
Turning to `Cc1cccc(Oc2nsnc(Cl)c2=O)c1` [Compound 21, 3-chloro-5-(3-methylphenoxy)-4H--1,2,6-thiadiazin-4-one], the inhibition at 5 ppm (5 ppm) is 38%. The inhibition at 10 ppm (10 ppm) came to 38%. Also, the inhibition at 40 ppm (40 ppm) is 85%. Also, under “20 ppm”, the inhibition at 20 ppm turned out to be 69%.
As to `Cc1ccccc1Oc1nsnc(Cl)c1=O` [Compound 22, 3-chloro-5-(2-methylphenoxy)-4H--1,2,6-thiadiazin-4-one], where the note is “5 ppm”, the inhibition at 5 ppm stood at 31%. Besides, where the note is “10 ppm”, the inhibition at 10 ppm turned out to be 46%. The inhibition at 40 ppm (40 ppm) is 92%. Further, the inhibition at 20 ppm (20 ppm) came out at 69%.
Turning to `Cc1ccc(Oc2nsnc(Cl)c2=O)c(C)c1` [Compound 23, 3-chloro-5-(2,4-dimethylphenoxy)-4H--1,2,6-thiadiazin-4-one], the inhibition at 5 ppm (5 ppm) stood at 27%. Moreover, for the setting “10 ppm”, the inhibition at 10 ppm was found to be 38%. In addition, under “40 ppm”, the inhibition at 40 ppm stood at 100%. The inhibition at 20 ppm (20 ppm) is 81%.
With `Cc1cccc(C)c1Oc1nsnc(Cl)c1=O` [Compound 24, 3-chloro-5-(2,6-dimethylphenoxy)-4H--1,2,6-thiadiazin-4-one], the inhibition at 5 ppm (5 ppm) was found to be 46%. For the same compound, the inhibition at 10 ppm (10 ppm) amounted to 65%. Moreover, where the note is “40 ppm”, the inhibition at 40 ppm turned out to be 100%. Besides, the inhibition at 20 ppm (20 ppm) was found to be 100%.
On to `Cc1cc(C)cc(Oc2nsnc(Cl)c2=O)c1` [Compound 25, 3-chloro-5-(3,5-dimethylphenoxy)-4H--1,2,6-thiadiazin-4-one], for which, for the setting “5 ppm”, the inhibition at 5 ppm is 27%. For the same compound, the inhibition at 10 ppm (10 ppm) is 50%. The inhibition at 40 ppm (40 ppm) turned out to be 100%. Besides, under “20 ppm”, the inhibition at 20 ppm was found to be 77%.
On to `Nc1ccc(Oc2nsnc(Cl)c2=O)cc1` [Compound 26, 5-(4-aminophenoxy)-3-chloro-4H--1,2,6-thiadiazin-4-one], for which the “Percent Fungus Growth Inhibition” value (40 ppm) worked out at 77%. Also, the inhibition at 5 ppm (5 ppm) was found to be 37%. Moreover, the inhibition at 10 ppm (10 ppm) came to 49%. Besides, under “20 ppm”, the inhibition at 20 ppm was 49%.
As for `Nc1ccc(Oc2nsnc(Cl)c2=O)cc1` [Compound 27, 5-(4-aminophenoxy)-3-chloro-4H--1,2,6-thiadiazine-4-one hydrochloride], the “Percent Fungus Growth Inhibition” value runs as follows: (5 ppm, hydrochloride) 31%; (10 ppm, hydrochloride) 40%; (40 ppm, hydrochloride) 54%.
In the case of `CNC(=O)Nc1ccc(Oc2nsnc(Cl)c2=O)cc1` [Compound 28, 3-chloro-5-[4-(3-methylureido)-phenoxy]-4H--1,2,6-thiadiazin-4-one], the inhibition at 5 ppm (5 ppm) is 14%. In addition, the inhibition at 10 ppm (10 ppm) was 26%. Further, the inhibition at 40 ppm (40 ppm) was 60%. Also, the inhibition at 20 ppm (20 ppm) was 26%.
Take `O=C(Nc1ccccc1)Nc1ccc(Oc2nsnc(Cl)c2=O)cc1` [Compound 29, 3-chloro-5-[4-(3-phenylureido)-phenoxy]-4H--1,2,6-thiadiazin-4-one]: the inhibition at 5 ppm (5 ppm) came out at 14%. The inhibition at 10 ppm (10 ppm) is 11%. Further, the inhibition at 40 ppm (40 ppm) turned out to be 31%. For the same compound, the inhibition at 20 ppm (20 ppm) stood at 14%.
Turning to `O=c1c(Cl)nsnc1Oc1c(Cl)cc(Cl)cc1Cl` [Compound 30, 3-chloro-5-(2,4,6-trichlorophenoxy)-4H--1,2,6-thiadiazin-4-one], the inhibition at 5 ppm (5 ppm) worked out at 75%. The inhibition at 10 ppm (10 ppm) amounted to 100%. In addition, the inhibition at 40 ppm (40 ppm) came to 100%. Also, the inhibition at 20 ppm (20 ppm) came to 100%.
In the case of `O=c1c(Cl)nsnc1Oc1c(Cl)c(Cl)c(Cl)c(Cl)c1Cl` [Compound 31, 3-chloro-5-(pentachlorophenoxy)-4H--1,2,6-thiadiazine-4-one], the inhibition at 5 ppm (5 ppm) came to 54%. For the same compound, the inhibition at 10 ppm (10 ppm) was 57%. In addition, the inhibition at 40 ppm (40 ppm) amounted to 69%. In addition, the inhibition at 20 ppm (20 ppm) came out at 60%.
Consider `O=c1c(Cl)nsnc1Oc1cccc2ccccc12` [Compound 32, 3-chloro-5(1-naphthoxy)-4H-1,2,6-thiadiazin-4-one], for which, where the note is “5 ppm”, the inhibition at 5 ppm stood at 35%. Moreover, the inhibition at 10 ppm (10 ppm) came out at 46%. For the setting “40 ppm”, the inhibition at 40 ppm was 100%. Also, the inhibition at 20 ppm (20 ppm) was 69%.
